Source: US7906512B2, “3,6-substituted imidazol[1,2-b]pyridazine analogs for treating allergic and inflammatory diseases” (Alcon, Inc., priority 2005, dated 2011)

Target: Syk (h) (Homo sapiens, UniProt P43405)
Test: Syk kinase inhibition assay (33P-ATP filter binding)
Assay type: biochemical
Settings: not given
Procedure: In a final reaction volume of 25 μl, Syk (h) (5-10 mU) is incubated with 50 mM Tris pH 7.5, […], 0.1 mM Na3VO4, 0.1% β-mercaptoethanol, 0.1 mg/mL poly (Glu, Tyr) 4:1, 10 μM test agent, 10 mM MgAcetate and [γ-^33P-ATP] (specific activity approximately 500 cpm/pmol, concentration as required). The reaction is initiated by the addition of the MgATP mix. After incubation for 40 minutes at room temperature, the reaction is stopped by the addition of 5 μl of a 3% phosphoric acid solution. 10 μl of the reaction is then spotted onto a Filtermat A and washed three times for 5 minutes in 75 mM phosphoric acid and once in methanol prior to drying and scintillation counting. Percent inhibition was calculated using the following formula: % Control=((sample-mean no enzyme)/(mean plus enzyme−mean no enzyme))×100.

SMILES	inhibition at 10 µM [%]
CCCC/C=C/c1cnc2ccc(NCCN(C)C)nn12	27

Same assay, conditions: 10 μM test agent; 40 minutes at room temperature; substrate poly (Glu, Tyr) 4:1; read-out: % inhibition

SMILES	inhibition at 10 µM [%]
COc1ccccc1-c1cnc2ccc(NCc3ccccn3)nn12	81
COc1ccc(-c2cnc3ccc(NCc4ccccn4)nn23)cc1	77
c1n[nH]cc1-c1cnc2ccc(NC3CCOCC3)nn12	42
CN1CCN(c2ccc(CNc3ccc4ncc(-c5cccc(OC(F)(F)F)c5)n4n3)cc2)CC1	33
COc1cc(CNc2ccc3ncc(-c4ccc(Oc5ccccc5)cc4)n3n2)cc(OC)c1OC	24

The next lines start with the values.

inhibition at 10 µM [%]	SMILES
38	CCCNc1ccc2ncc(-c3cc(C)cs3)n2n1
26	c1csc(-c2cnc3ccc(NCC4CC4)nn23)c1
23	CCCNc1ccc2ncc(-c3ccsc3)n2n1
